Laboratory results reported in US20200061038A1, “THERAPEUTIC AGENT FOR FIBROSIS AND INHIBITOR OF NUCLEAR TRANSLOCATION OF PHOSPHORYLATED SMAD” (NATIONAL UNIVERSITY CORPORATION CHIBA UNIVERSITY, priority 2016, published 2020).

Legend:
[1] = system: lactosylceramide synthase; assay: Lactosylceramide synthesis activation test; format: cell-based, human; details: HFL1 cells; PPMP 3 μM, NB-DNJ 100 μM applied 30 minutes before TGFβ1 (10 ng/mL) stimulation
Experimental: The experiment was conducted by referring to Chatterjee S, Pandey A. The Yin and Yang of lactosylceramide metabolism: implications in cell function. Biochim Biophys Acta. 2008 March; 1780 (3); 370-82.
The sample was put through quantitative determination of protein, and then 300 μM of […], 100 μM of uridine diphosphate galactose (UDP-Gal, containing 7.5×10^5 dpm of [^3H] UDP-Gal), and reaction buffer, were added to 50 μL of sample, to a final volume of 100 μL/tube. This reaction sample was incubated for 2 hours at 37° C., and finally 50 mM of KCl and 25 mM of EDTA were added to stop the reaction. Thereafter, lipids were extracted from the sample according to the Bligh-Dyer method, and all lipids were expanded using TLC (chloroform:methanol:water=100:42:6). The separated lipids were stained using iodine gas, silica gel at the same position as the lactosylceramide target was scraped off, and its radiation activity was measured using a liquid scintillation counter (Aloka LSC-5100 manufactured by Hitachi-Aloka Medical), and then the amount of synthesized lactosylceramide was calculated. It should be noted that, for the background sample(control), a sample with zero incubation time was used.
Whether or not TGFβ1 treatment would increase the synthesis of lactosylceramide was examined in vitro. […]

[2] = system: patient's pulmonary fibroblast cells; assay: αSMA expression (western blot) in patient's pulmonary fibroblast cells; format: cell-based, human; details: PPMP 0.5 μM, 1.0 μM; NB-DNJ 100 μM, 200 μM; cultured 48 hours
Experimental: Post-operative lung tissues were obtained from a lung transplant patient who was suffering from a serious case of pleuroparenchymal fibroelastosis.
The lung tissues were shredded, rinsed with phosphate-buffered saline (PBS), and then incubated at 37° C. for 15 minutes under gentle shaking, using 1 mg/ml collagenase type I (Worthington, Lakewood, N.J., USA), 0.5 mg/ml disperse (Life Technologies), 2 U/ml DNase (QIAGEN, Valencia, Calif., USA), 0.1 mg/ml streptomycin, and 100 U/ml penicillin.
The tissues were washed twice in DMEM, and then transferred into an 80-cm^2 culture flask and cultured at 37° C. in 5% CO2.
Cell growth was monitored every week, with the culture medium changed every four days. Once the flask reached confluent cultures, the cells were collected as cells at passage 0, and the cells obtained at passage 3 were used in the experiment as the patient's pulmonary fibroblast cells.
Patient's pulmonary fibroblast cells were cultured under the conditions of 95% air-5% CO2 and 37° C., using a Dulbecco's Modified Eagle Medium (DMEM) containing 10% fetal bovine serum (FBS), 100 μg/mL streptomycin, and 66.7 μg/mL penicillin.

[3] = system: bleomycin-induced fibrosing of the lung; assay: Bleomycin-induced pulmonary fibrosis mouse model: hematoxylin eosin-stained lung slices; format: in vivo, C57BL/6J mice; details: mice, lungs on 14th day
Experimental: 50 μL of 3 mg/kg bleomycin hydrochloride/saline solution (Nippon Kayaku Co., Ltd.) was administered through the bronchial tubes to C57BL/6J mice (male, 8 to 12 weeks old) under tribromoethanol-ether anesthesia, to prepare mouse models for pulmonary fibrosis. 50 μL of saline solution was administered in the same manner to a control group not treated with bleomycin hydrochloride. Seven, eight and nine days after the administration of bleomycin, 50 μL of 20 mg/kg NB-DNJ/saline solution was administered into the bronchial tubes of the mice under tribromoethanol-ether anesthesia. 50 μL of saline solution was administered into the bronchial tubes to a control group of mice not administered with NB-DNJ. For 7 to 13 consecutive days after the administration ofbleomycin, 0.2 mL of 600 mg/kg NB-DNJ/saline solution was orally administered daily (once a day). As control group mice which were not administrated with NB-DNJ, 0.2 mL of saline solution was orally administered. On the 14th day after the administration of bleomycin, each mouse was subjected to thoracotomy under deep ether anesthesia, and its entire body was perfused with PBS from the left ventricle using a syringe needle, while blood was removed from the lungs through the right ventricle, and the lungs were removed. The lungs were soaked in 4% paraformaldehyde and fixed overnight at 4° C. […]

αSMA [4] = assay: αSMA expression (western blot) in TGFβ1-stimulated HFL1 cells; format: cell-based, human; details: PPMP 3 μM, NB-DNJ 100 μM applied 30 minutes before TGFβ1 (10 ng/mL), 24 hours
Experimental: Human pulmonary fibroblast (HFL1) (ATCC CCL-153) cells were cultured under the conditions of 95% air-5% CO2 and 37° C., using a Dulbecco's Modified Eagle Medium (DMEM) containing 10% fetal bovine serum (FBS), 100 μg/mL streptomycin, and 66.7 μg/mL penicillin.
How an increase in lactosylceramide synthesis activity due to TGFβ1 affects the fibrosing of tissues was examined based on the expression level of αSMA, which is a fibrosing marker protein.

αSMA [5] = assay: Bleomycin-induced pulmonary fibrosis mouse model: lung αSMA western blot; format: in vivo, C57BL/6J mice; details: mice; 20 mg/kg NB-DNJ into the bronchial tubes on days 7, 8, 9 after bleomycin; lungs on 14th day
Experimental: 50 μL of 3 mg/kg bleomycin hydrochloride/saline solution (Nippon Kayaku Co., Ltd.) was administered through the bronchial tubes to C57BL/6J mice (male, 8 to 12 weeks old) under tribromoethanol-ether anesthesia, to prepare mouse models for pulmonary fibrosis. 50 μL of saline solution was administered in the same manner to a control group not treated with bleomycin hydrochloride.
Seven, eight and nine days after the administration of bleomycin, 50 μL of 20 mg/kg NB-DNJ/saline solution was administered into the bronchial tubes of the mice under tribromoethanol-ether anesthesia. 50 μL of saline solution was administered into the bronchial tubes to a control group of mice not administered with NB-DNJ.
On the 14th day after the administration of bleomycin, each mouse was subjected to thoracotomy under deep ether anesthesia, and its entire body was perfused with PBS from the left ventricle using a syringe needle, while blood was removed from the lungs through the right ventricle, and the lungs were removed.
Thereafter, the tissues were further pulverized using a homogenizer, and centrifuged at 15000 rpm and 4° C. for 30 minutes.

Smad2 = Smad2 nuclear localization (immunofluorescent staining, confocal) in HFL1 cells; format: cell-based, human; details: pretreatment PPMP 3 μM or NB-DNJ 100 μM, TGFβ1 10 ng/mL, 3 hours
Experimental: For immunostaining of Smad and phosphorylated Smad, ribonuclease A (RNase, Worthington Biochemical) (200 μg/mL, room temperature, 30 minutes) and propidium iodide (PI, Cayman Chemical) (20 μg/mL, room temperature, 30 minutes) were applied to stain the nucleus, and the stained images were observed using a confocal microscope (FV500 manufactured by Olympus).
When localization of Smad2/3 was observed, on the other hand, Smad2/3 accumulated in the nucleus in 3 hours after the single stimulation of TGFβ1 (10 ng/mL).

PKCδ = assay: Translocation of PKCδ into the cellular membrane in HFL1 cells; format: cell-based, human; details: PPMP 3 μM, Rottlerin 1 μM applied beforehand, two hours after TGFβ1 10 ng/mL
Experimental: HFL1 cells were inoculated onto a 3.5-cm glass-bottom dish by 1.0×10^4 cells/dish, and then cultured in 2.0 mL of DMEM containing 10% FBS, to achieve 70% confluence. The cells were washed in HBSS containing 0.1% BSA, and then cultured in DMEM containing 0.1% BSA for 48 hours without serum.
Thereafter, the medium was replaced by a DMEM containing 0.1% BSA, and stimulation was given for a specified period using each reagent (each inhibitor was applied 30 minutes before the stimulant), after which each sample was fixed with 4% paraformaldehyde (PFA) at 4° C. for 15 minutes. Thereafter, as deemed appropriate, the sample was permeabilized (0.3% saponin, room temperature, 1 hour) and blocked (3% BSA, room temperature, 1 hour), with a primary antibody applied overnight at 4° C., and a secondary antibody applied for 1 hour at room temperature. For immunostaining of Smad and phosphorylated Smad, ribonuclease A (RNase, Worthington Biochemical) (200 μg/mL, room temperature, 30 minutes) and propidium iodide (PI, Cayman Chemical) (20 μg/mL, room temperature, 30 minutes) were applied to stain the nucleus, and the stained images were observed using a confocal microscope (FV500 manufactured by Olympus).
In general, activation of PKC is observed in the form of its translocation into the cellular membrane; accordingly, involvement of lactosylceramide was examined using the translocation of PKCδ into the cellular membrane as an indicator.

Smad2/3 = details: HFL1 cells; PPMP 3 μM applied 30 minutes before TGFβ1 (10 ng/mL) treatment; over time
Experimental: HFL1 cells were inoculated onto a six-well plate by 1.0×10^5 cells/well, and then cultured in 2.0 mL of DMEM containing 10% FBS, to achieve 70% confluence. The cells were washed using Hanks' balanced salt solution (HBSS) containing 0.1% bovine serum albumin (BSA) (4.2 mM NaHCO3, 137 mM NaCl, 5.36 mM KCl, 0.4 mM MgSO4.7H2O, 0.34 mM Na2HPO4.12H2O, 5.55 mM glucose, 0.44 mM KH2PO4, 0.72 mM CaCl2.H2O, pH=7.4), and then cultured in a DMEM containing 0.1% BSA for 48 hours without serum. […]
The cells were crushed according to the vortex method, centrifuged under the conditions of 15000 rpm and 4° C. for 30 minutes, and the supernatant was taken as a sample. Quantitative determination of protein was performed according to the Bradford method, and a specified amount of protein was separated by SDS-polyacrylic amide gel electrophoresis. […]
Thereafter, the PVDF film was soaked in an ECL solution and fluorometric detection was performed using an image capture/analysis system (ChemiDocMP System manufactured by Bio-Rad). The detected bands were converted to numerical values using image processing software (ImageJ).

Row | Compound | activity of the lactosylceramide synthase after TGFβ1 stimulation [1] | expression of αSMA in patient's pulmonary fibroblast cells [2] | bleomycin-induced fibrosing of the lung, bronchial-tube-administration ([3]; 20 mg/kg NB-DNJ into the bronchial tubes on days 7, 8, 9 after bleomycin) | bleomycin-induced fibrosing of the lung, oral administration ([3]; 600 mg/kg NB-DNJ orally once a day, days 7 to 13 after bleomycin) | increase in the αSMA expression level due to TGFβ1 (αSMA [4]) | expression of αSMA in lung in the presence of bleomycin (αSMA [5]) | accumulation of Smad2 in the nucleus due to TGFβ1 (Smad2) | translocation of PKCδ into the cellular membrane due to TGFβ1 (PKCδ) | phosphorylation levels of Smad2/3 (Smad2/3)
1 | CCCCN1C[C@H](O)[C@@H](O)[C@H](O)[C@H]1CO [NB-DNJ, N-butyl deoxynojirimycin] | suppressed the activity of the lactosylceramide synthase significantly | the expression of αSMA is suppressed | suppress the bleomycin-induced fibrosing of the lung | suppress the bleomycin-induced fibrosing of the lung | suppressed increase in the αSMA expression level | the expression of αSMA is suppressed | suppressed the accumulation of Smad2 in the nucleus | – | –
2 | 1-phenyl-2-hexadecanoyl amino-3-morpholino-1-propanol [PPMP] | suppressed the activity of the lactosylceramide synthase significantly | the expression of αSMA is suppressed | – | – | suppressed increase in the αSMA expression level | – | suppressed the accumulation of Smad2 in the nucleus | translocation of PKCδ into the cellular membrane was suppressed | did not change the phosphorylation levels of Smad2/3 over time
